Patent US20230081720A1, “MCL-1 INHIBITOR ANTIBODY-DRUG CONJUGATES AND METHODS OF USE” (NOVARTIS AG, priority 2019, published 2023)

Key:
[1] = test system: Nomo1 acute myeloid leukemia model; assay: Nomo1 xenograft tumor growth inhibition; format: in vivo; conditions: female SCID mice, 50 MK 4ON/3OFF/4ON, PO, alone, day 9
Protocol: The in vivo therapeutic effect of a CD74-targeting ADC formulated in Phosphate-Buffered Saline (PBS) is determined in Nomo1 acute myeloid leukemia model after intravenous (IV) administration. The follow compounds were tested: anti-CD74_CysmAb Fc silent_L5-P1, anti-CD74_CysmAb Fc silent and IgG1-Linker-Payload Fc silent.
Nomo1 cells, obtained from DSMZ, were cultured in RPMI supplemented with 10% FBS. 0.1 ml containing 5×10^6 cells were subcutaneously inoculated into the right flank of female SCID mice, provided by Charles River. When tumors reached the appropriate volume, mice were randomized, 6 animals per group, using Easy stat software. IgG1-Linker-Payload Fc silent, anti-CD74_CysmAb Fc silent and anti-CD74_CysmAb Fc silent_L5-P1 (30 mg/kg) were injected once IV in PBS. Venetoclax (synthetized at the Servier Research Institute—IdRS) was formulated in PEG/EtOH/Phosal (Polyethylene glycol/ethanol/phosal, 30/10/60) and administered per os (PO) daily on weekdays (50 mpk, 4ON/3OFF/4ON). Mice body weight was monitored three times a week and tumor size measured using electronic calipers. […] The last day with at least half of animals of all groups still present in the study (d9), tumor growth inhibition was calculated using the formula: […]
With DTV (Delta Tumor Volume) at Dx, calculated being TV at Dx-TV at Randomization. […]

[2] = test system: EOL1 human acute myeloid (eosinophilic) leukemia xenograft model; assay: EOL1 xenograft, CD74-L5-P1 Fc silent with venetoclax (Example 14); format: in vivo, mice
Protocol: EOL1 luciferase transfected cells were cultured at 37° C. in an atmosphere of 5% CO2 in air in RPMI1640 (BioConcept Ltd. Amimed) supplemented with 10% FCS (BioConcept Ltd. Amimed, #2-01 F30-1), 2 mM L-glutamine (BioConcept Ltd. Amimed, #5-10K00-H) and 1 mM sodium pyruvate (BioConcept Ltd. Amimed, #5-60F00-H), 10 mM HEPES (Gibco #11560496). To establish EOL1 xenografts cells were harvested and re-suspended in HBSS (Gibco, #14175) before injecting 100 μL containing 5×10^6 cells subcutaneously in the flanks of female SCID beige mice (Charles River, Germany). Tumor growth was monitored regularly post cell inoculation and animals were randomized into treatment groups (n=6) with a mean tumor volume of about 130 mm^3. CD74-L5-P1 Fc silent, isotype IgG1 ADC Fc silent and CD74 Fc silent antibody were administered intravenously (iv) once at the start of treatment at the doses indicated in FIG. 12 either alone or in combination with venetoclax which was administered orally (po) daily (qd) at 50 mg/kg. Doses were adjusted to individual mouse body weights. The iv dose volume was 10 ml/kg and each ADC was dissolved in 0.9% (w/v) NaCl in water. Tumor volume data on day 10 post treatment were analyzed statistically using Kruskal-Wallis rank sum test (Indigo Software). When applicable, results are presented as mean±SEM. As a measure of efficacy the % T/C value is calculated on day 10 according to:
(Δtumor volume^treated/Δtumor volume^control)*100
Tumor regression was calculated according to:
−(Δtumor volume^treated/tumor volume^treated at start)*100
Where Δtumor volumes represent the mean tumor volume on the evaluation day minus the mean tumor volume at the start of the experiment.

[3] = test system: Karpas422 diffuse large B-cell lymphoma model; assay: Karpas422 xenograft tumor growth inhibition; format: in vivo, mice; conditions: 50 MK 4ON/3OFF/4ON, PO, alone
Protocol: The in vivo therapeutic effect of a CD74-targeting ADC formulated in Phosphate-Buffered Saline (PBS) was determined in Karpas422 diffuse large B-cell lymphoma model after intravenous (IV) administration.
Karpas422 cells, obtained from ATCC, were cultured in RPMI supplemented with 20% FBS. Cells were resuspended in 100% Matrigel (BD Biosciences) and 0.1 ml containing 11×10^6 cells were subcutaneously inoculated into the right flank of female NSG mice, provided by Charles River. When tumors reached the appropriate volume, mice were randomized, 6 animals per group, using Easy stat software. IgG1-Linker-Payload Fc silent, anti-CD74_CysmAb Fc silent and anti-CD74_CysmAb Fc silent_L5-P1 (30 mg/kg) were injected once IV in PBS. Venetoclax (synthetized at the Servier Research Institute—IdRS) was formulated in PEG/EtOH/Phosal (Polyethylene glycol/ethanol/phosal, 30/10/60) and administered per os (PO) daily on weekdays (50 mpk, 4ON/3OFF/4ON). Mice body weight was monitored three times a week and tumor size measured using electronic calipers. Tumor volume was estimated by measuring the minimum and maximum tumor diameters using the formula: (minimum diameter)^2(maximum diameter)/2. The last day with at least half of control animals still present in the study (d23), tumor growth inhibition was calculated using the formula:
With DTV (Delta Tumor Volume) at Dx, calculated being TV at Dx-TV at Randomization. Response was evaluated as it follows: CR (Complete Response) if tumor size was <25 mm^3 for at least three measurements, PR (Partial Response) if tumor size was comprised between 25 mm^3 and 168.3 mm^3 (half of the starting size) for at least three measurements. Mice were sacrificed at the first measurement for which tumor volume exceeded 2000 mm^3 or at the first signs of animal health deterioration. […] SCID mice were maintained according to institutional guidelines.

[4] = test system: Monomac1 acute myeloid leukemia model; assay: Monomac1 xenograft tumor growth inhibition; format: in vivo, mice; conditions: 50MK 2ON/2OFF/5ON/2OFF/4ON, PO, alone
Protocol: The in vivo therapeutic effect of a CD74-targeting ADC formulated in Phosphate-Buffered Saline (PBS) was determined in Monomac1 acute myeloid leukemia model after intravenous (IV) administration. The following compounds were tested: CD74-targeting ADC is anti-CD74_CysmAb Fc silent_L5-P1, IgG1-Linker-Payload Fc silent, and anti-CD74_CysmAb Fc silent.
Monomac1 cells, obtained from DSMZ, were cultured in RPMI supplemented with 10% FBS. 0.1 ml containing 5×10^6 cells were subcutaneously inoculated into the right flank of female SCID mice, provided by Charles River. When tumors reached the appropriate volume, mice were randomized, 6 animals per group, using Easy stat software. IgG1-Linker-Payload Fc silent, anti-CD74_CysmAb Fc silent and anti-CD74_CysmAb Fc silent_L5-P1 (30 mg/kg) were injected once IV in PBS. Venetoclax (synthetized at the Servier Research Institute—IdRS) was formulated in PEG/EtOH/Phosal (Polyethylene glycol/ethanol/phosal, 30/10/60) and administered per os (PO) daily on weekdays (50 mpk, 2ON/2OFF/5ON/2OFF/4ON). Mice body weight was monitored three times a week and tumor size measured using electronic calipers. Tumor volume was estimated by measuring the minimum and maximum tumor diameters using the formula: (minimum diameter)^2(maximum diameter)/2. The last day with at least half of control animals still present in the study (d16), tumor growth inhibition was calculated using the formula:
With DTV (Delta Tumor Volume) at Dx, calculated being TV at Dx-TV at Randomization. […] Mice were sacrificed at the first measurement for which tumor volume exceeded 2000 mm^3 or at the first signs of animal health deterioration. […] SCID mice were maintained according to institutional guidelines.

Structure (SMILES): CC1(C)CCC(CN2CCN(c3ccc(C(=O)NS(=O)(=O)c4ccc(NCC5CCOCC5)c([N+](=O)[O-])c4)c(Oc4cnc5[nH]ccc5c4)c3)CC2)=C(c2ccc(Cl)cc2)C1 [Venetoclax]
- % TGI (d9) [1]: 26.2%
- T/C (%) ([2]; 50 mg/kg p.o. qd + vehicle for ADC, day 10): 90%
- ΔTumor volume (mm^3) ([2]; 50 mg/kg p.o. qd + vehicle for ADC, day 10, mean): 977 mm^3
- antitumor effect (in words) ([2]; 50 mg/kg po qd alone): Limited efficacy
- % CR [3]: 0%
- % PR [3]: 0%
- % TGI (d23) ([3]; female NSG mice, day 23): 31.1%
- % CR [4]: 0%
- % PR [4]: 0%
- % TGI (d16) ([4]; female SCID mice, day 16): 4.5%
